Assay results: publication PMC9031298, “Enhanced In Vitro Antiviral Activity of Hydroxychloroquine Ionic Liquids against SARS-CoV-2” (Pharmaceutics, 2022)
Several values for one entry are separate records, joined by “and”; a condition that tells them apart may be missing. Equal entries are not always repeated. Structures can show the parent of a compound that is named as a salt. Where two headings read alike, the source gives them in different places.

Columns and labels:
[1] = test system: Vero E6 cells
[2] = Critical micelle concentration by ionic conductivity; assay type: physicochemical; conditions: 20 °C, water
Method: The critical micelle concentrations of the HCQ-ILs with surfactant-like anions were calculated using ionic conductivity measurements. A Crison Basic 30+ Radiometer Analytical conductivity meter was used to measure the ionic conductivities (μS/cm) of surfactant solutions in a glass cell at 20 °C containing a magnetic stirrer. For this method, a known amount of Milli-Q water was placed in a thermostated glass cell and the surfactant solution of known concentration was progressively added using a micropipette under constant stirring. Each conductivity value was measured at least three times.
The ability to form micelles of the lipophilic HCQ-ILs [DocSO3] (5) and [C12SO4] (8) was studied by ionic conductivity measurements. The inherent ability of these HCQ-ILs to self-aggregate into micelles can render adequate drug delivery properties. […] The critical micelle concentration (cmc) values, calculated by resolving both equations, are given in Table 3, alongside the cmc values for the starting halide salts (Na[DocSO3] and [C12SO4]).

[3] = cited from earlier work
[4] = test system: SARS-CoV-2; test: microbe, parasite or virus in culture; assay type: cell-based; conditions: for EC50 / EC90: TCID50 assay; for EC50: three experiments, read-out: EC50, inhibition of production of infectious progeny viruses; for EC90: read-out: EC90, inhibition of production of infectious progeny viruses
[5] = Cell viability assay (CellTiter-Glo), cytotoxicity; conditions: African green monkey, Vero E6 cells (non-infected), CC50, non-infected Vero E6 cells, mean of three experiments
[6] = test system: SARS-CoV-2; conditions: for inhibition of CPE: at 10 μM, Vero E6, 72 hpi; for EC50: read-out: EC50, inhibition of virus-induced CPE; for EC90: read-out: EC90, inhibition of virus-induced CPE
[7] = Octanol–water partition coefficient (Kow, Log P) by UV–Vis; conditions: logarithm of Kow, ca. 1 mg/mL, triplicate
[8] = test system: SARS-CoV-2; test: microbe, parasite or virus in culture; conditions: Severe acute respiratory syndrome coronavirus 2, Vero C1008, read-out: EC90, inhibition of virus-induced CPE, Vero E6 cells, 100 TCID50, 72 hpi
[9] = test system: SARS-CoV-2; test: microbe, parasite or virus in culture; assay type: cell-based; conditions: for EC50 / EC90: qRT-PCR; for EC50: four experiments, read-out: EC50, inhibition of vRNA transcription; for EC90: read-out: EC90, inhibition of vRNA transcription; for inhibition of vRNA transcription: at 16.7 μM, 48 hpi
[10] = Water solubility by stepwise addition of water until visual dissolution; conditions: double-distilled water, 37 °C; for solubility: water, thermodynamic from solid; for Water Solubility: visual inspection
[11] = test system: Vero E6 cells; test: Cell viability assay (CellTiter-Glo), cytotoxicity; conditions: non-infected Vero E6 cells, 72 h, mean of three experiments
[12] = Severe acute respiratory syndrome coronavirus 2, Vero C1008, Vero E6, 48 hpi
[13] = Vero E6 cells, 100 TCID50, 72 hpi

**Q.** Which CC50 [1] does the source give for `CS(=O)(=O)[O-].[K+]` [3a, potassium methanesulfonate] here?
**A.** The CC50 was > 400 µM.

**Q.** Which CC50 [1] does the source give for `CCCCCCS(=O)(=O)O` [4a] here?
**A.** The CC50 was > 400 µM.

**Q.** With `CCCCC(CC)COC(=O)CC(C(=O)OCC(CC)CCCC)S(=O)(=O)[O-].[Na+]` (centres unmarked) [5a] as the molecule, how does the cmc [2] read?
**A.** Its cmc is 1540 µM.

**Q.** And the “Reference cmc (25 °C)” value [3]?
**A.** The value was 5.0 × 10^−3 [71] M.

**Q.** For `CC1(C)C2CC[C@@]1(CS(=O)(=O)[O-])C(=O)C2.[Na+]` [6a], which CC50 [1] is on record?
**A.** The CC50 was 142 µM.

**Q.** With `Cc1ccc(S(=O)(=O)[O-])cc1.[Na+]` [7a] as the molecule, how does the CC50 [1] read?
**A.** The CC50 was > 400 µM.

**Q.** With `CCCCCCCCCCCCOS(=O)(=O)[O-].[Na+]` [8a, reference compound] as the molecule, how does the cmc [2] read?
**A.** The cmc was 9600 µM.

**Q.** What about the “Reference cmc (25 °C)” value [3] of the same molecule?
**A.** Its value is 8.0 × 10^−3 [72] M.

**Q.** For `O=C([O-])[C@H](O)[C@@H](O)[C@H](O)[C@H](O)CO.[Na+]` [9a], which CC50 [1] is on record?
**A.** The CC50 was > 400 µM.

**Q.** Which results are given for `CCN(CCO)CCCC(C)Nc1ccnc2cc(Cl)ccc12` (centres unmarked) [compound 1, hydroxychloroquine sulfate, reference compound]?
**A.** EC50 [4, 12]: 21.7 µM; EC90 [4, 12]: 24.3 µM; CC50 at 72 h [5]: 214 µM; inhibition of CPE [6]: lower than 20%; EC50 [6, 13]: 16.5 µM; Log P [7]: −2.25; EC90 [8]: 23 µM; EC50 [9, 12]: 18.6 µM; EC90 [9, 12]: 25.1 µM; inhibition of vRNA transcription [9]: 34.0%

**Q.** What does the source list for `CCN(CCO)CCCC(C)Nc1ccnc2cc(Cl)ccc12.CS(=O)(=O)O.CS(=O)(=O)O` (centres unmarked) [compound 3, N^4-(7-chloroquinolin-4-yl)-N^1-ethyl-N^1-(2-hydroxyethyl)pentane-1,4-diaminium bis(methanesulfonate)]?
**A.** EC50 ([4]; Vero E6, 48 hpi): 21.8 µM; EC90 ([4]; Vero E6, 48 hpi): 24.4 µM; solubility [10]: 1800 mg/mL; CC50 [11]: 219 µM; inhibition of CPE [6]: 70.5%; EC50 [6, 13]: 8.1 µM and 8.14 µM; EC90 [6, 13]: > 25 µM; Log P [7]: −0.22; EC50 ([9]; Vero E6, 48 hpi): 17 µM; EC90 ([9]; Vero E6, 48 hpi): 23.4 µM; inhibition of vRNA transcription [9]: 48.5%

**Q.** With `CCCCC(CC)COC(=O)CC(C(=O)OCC(CC)CCCC)S(=O)(=O)O.CCCCC(CC)COC(=O)CC(C(=O)OCC(CC)CCCC)S(=O)(=O)O.CCN(CCO)CCCC(C)Nc1ccnc2cc(Cl)ccc12` (centres unmarked) [compound 5, N^4-(7-chloroquinolin-4-yl)-N^1-ethyl-N^1-(2-hydroxyethyl)pentane-1,4-diaminium bis(1,4-bis((2-ethylhexyl)oxy)-1,4-dioxobutane-2-sulfonate)] as the molecule, how does the “Water Solubility” value [10] read?
**A.** Its value is <0.5 mg/mL.

**Q.** What about the CC50 [11] of the same molecule?
**A.** The CC50 was 69.8 µM.

**Q.** What about the “SI (CC50/EC50), CPE inhibition” value [6] of the same molecule?
**A.** Its value is 7.8.

**Q.** What about the EC50 [6] of the same molecule?
**A.** Its EC50 is 8.9 µM.

**Q.** And the EC90 [6]?
**A.** Its EC90 is 20.9 µM.

**Q.** What about the “Log P” value [7] of the same molecule?
**A.** Its value is 1.24.

**Q.** And the cmc [2]?
**A.** The cmc was 1.79 µM.

**Q.** Which results are given for `CC1(C)C2CC[C@@]1(CS(=O)(=O)O)C(=O)C2.CC1(C)C2CC[C@@]1(CS(=O)(=O)O)C(=O)C2.CCN(CCO)CCCC(C)Nc1ccnc2cc(Cl)ccc12` (centres unmarked) [compound 6]?
**A.** Water Solubility [10]: 2020 mg/mL; Log P [7]: −1.16

**Q.** With `CCN(CCO)CCC[C@H](C)Nc1ccnc2cc(Cl)ccc12` [compound 6] as the molecule, how does the CC50 [11] read?
**A.** Its CC50 is 73.2 µM.

**Q.** And the EC90 [6]?
**A.** The EC90 was > 25 µM.

**Q.** Which solubility [10] does the source give for `CCN(CCO)CCCC(C)Nc1ccnc2cc(Cl)ccc12.Cc1ccc(S(=O)(=O)O)cc1.Cc1ccc(S(=O)(=O)O)cc1` (centres unmarked) [compound 7, N^4-(7-chloroquinolin-4-yl)-N^1-ethyl-N^1-(2-hydroxyethyl)pentane-1,4-diaminium bis(4-methylbenzenesulfonate)] here?
**A.** Its solubility is 1400 mg/mL.

**Q.** What about the CC50 [11] of the same molecule?
**A.** Its CC50 is 207 µM.

**Q.** And the EC50 [6, 13]?
**A.** Its EC50 is 15 µM.

**Q.** What about the EC90 [6, 13] of the same molecule?
**A.** The EC90 was 21.1 µM.

**Q.** What about the “Log P” value [7] of the same molecule?
**A.** Its value is −1.12.

**Q.** Which results are given for `CCCCCCCCCCCCS(=O)(=O)O.CCCCCCCCCCCCS(=O)(=O)O.CCN(CCO)CCCC(C)Nc1ccnc2cc(Cl)ccc12` (centres unmarked) [compound 8, N^4-(7-chloroquinolin-4-yl)-N^1-ethyl-N^1-(2-hydroxyethyl)pentane-1,4-diaminium bis(dodecane-1-sulfonate)]?
**A.** Water Solubility [10]: <0.5 mg/mL; EC50 [6]: 15.8 µM; EC90 [6]: 23.8 µM; Log P [7]: 1.01; cmc [2]: 4.83 µM

**Q.** For `CCN(CCO)CCCC(C)Nc1ccnc2cc(Cl)ccc12.O=C(O)[C@@H](O)[C@H](O)[C@@H](O)[C@@H](O)CO.O=C(O)[C@@H](O)[C@H](O)[C@@H](O)[C@@H](O)CO` [compound 9, N^4-(7-chloroquinolin-4-yl)-N^1-ethyl-N^1-(2-hydroxyethyl)pentane-1,4-diaminium bis((2S,3R,4S,5S)-2,3,4,5,6-pentahydroxyhexanoate)], which EC50 ([4]; Vero E6, 48 hpi) is on record?
**A.** Its EC50 is 16.9 µM.

**Q.** What about the EC90 ([4]; Vero E6, 48 hpi) of the same molecule?
**A.** Its EC90 is 22.5 µM.

**Q.** What about the “inhibition of production of infectious progeny” value ([4]; at 16.7 μM, 48 hpi) of the same molecule?
**A.** Its value is 56.5%.

**Q.** And the “Water Solubility” value [10]?
**A.** Its value is 1230 mg/mL.

**Q.** And the CC50 [11]?
**A.** Its CC50 is 196 µM.

**Q.** What about the EC50 [6] of the same molecule?
**A.** Its EC50 is 8.5 µM.

**Q.** What about the EC90 [6] of the same molecule?
**A.** Its EC90 is > 25 µM.

**Q.** What about the “Log P” value [7] of the same molecule?
**A.** The value was −1.39.

**Q.** And the EC50 ([9]; Vero E6, 48 hpi)?
**A.** Its EC50 is 16.3 µM.

**Q.** What about the EC90 ([9]; Vero E6, 48 hpi) of the same molecule?
**A.** Its EC90 is 23.1 µM.

**Q.** And the “inhibition of vRNA transcription” value [9]?
**A.** The value was 55.8%.
